# Test results reported in PMC4821887, “Identification of chemicals that mimic transcriptional changes associated with autism, brain aging and neurodegeneration” (Nature Communications, 2016).
# Tested on: mouse cortical cultures
# Assay: RNA-seq differential expression (DESeq) against matched vehicle
# Type: cell-based
# Parameters: key to MeanFenamidone Bcl11b / MeanFenamidone Slc12a4 / MeanFenamidone Abca1 / MeanFenamidone Hmox1 / MeanFenamidone Il1rap / MeanFenamidone Cyba / MeanFenamidone Narf / MeanFenamidone Bnip3 / MeanFenamidone Amotl2 / MeanFenamidone Gad2 / MeanFenamidone Vsnl1 / MeanFenamidone Fam178a: DESeq mean of counts over RefSeq exons
# Method: Figure 4 Cluster 2 chemicals alter expression of a common set of genes. […] RNA-seq was performed in quadruplicate after treating cortical cultures with fenamidone (10 μM) or pyraclostrobin (0.1 μM) for 24 h (n=3 biological replicates) and compared with matched vehicle controls using DESeq to detect differentially expressed genes, listed in Supplementary Data 4.
# Cultures were treated with the non-cytotoxic dose of each chemical, by exchanging half of the original medium with chemicals at 2 × concentration in prewarmed feeding medium, on DIV 7 for 24 h in 12-well plates at a density of 5 × 10^5 cells per well. RNA was isolated using RNeasy plus mini kit (Cat. #74134, Qiagen). […]. Samples were further assessed for quality using either an Agilent Bioanalyzer 2100 or TapeStation 2200 to obtain a RIN. RIN values exceeding 7 were used for sequencing. RNA samples were used to generate and barcode complementary DNA libraries using the TruSeq RNA Library Preparation Kit at the UNC High Throughput Sequencing Facility. Pools of 24 multiplexed samples were sequenced per lane on an Illumina HiSeq 2500 using 50-bp paired-end reads.
# RNA-seq reads were filtered using TagDust and aligned to the reference mouse genome (mm9) with TopHat using default parameters. Reads aligning to ribosomal RNA genes were removed. Transcript abundance was estimated by computing Reads per kilobase per million mapped reads (RPKM) using RefSeq gene models aggregated by gene symbol. For differential expression analyses, raw counts over RefSeq exons were used, and then were compared across samples using DESeq[62].
smiles,measurement,setting,value
CSC1=N[C@@](C)(c2ccccc2)C(=O)N1Nc1ccccc1 [fenamidone],Differentially expressed genes (DESeq) compared between the two fungicides,"fenamidone 10 μM or pyraclostrobin 0.1 μM, 24 h",up- and downregulate a largely overlapping set of genes
same,MeanFenamidone (DESeq mean normalized counts),"gene 2810011L19Rik, Fenamidone, 4 reps, vs matched vehicle",45.3905
same,MeanFenamidone,gene 3632451O06Rik,64.8489
same,log2FoldChange,gene 3632451O06Rik,-1.594
same,MeanFenamidone,gene 4931428F04Rik,315.322
same,log2FoldChange,gene 4931428F04Rik,-1.331
same,MeanFenamidone,gene 4933426M11Rik,495.966
same,log2FoldChange,gene 4933426M11Rik,1.2253
same,MeanFenamidone 9930013L23Rik,"gene 9930013L23Rik, DESeq mean, 4 reps",645.322
same,log2FoldChange 9930013L23Rik,"gene 9930013L23Rik, vs vehicle, 4 reps",2.2987
same,MeanFenamidone AF357359,"gene AF357359, DESeq mean, 4 reps",31.2414
same,log2FoldChange AF357359,"gene AF357359, vs vehicle, 4 reps",-2.02
same,MeanFenamidone Abca1,"gene Abca1, DESeq mean, 4 reps",1327.24
same,log2FoldChange Abca1,"gene Abca1, vs vehicle, 4 reps",1.708
same,MeanFenamidone Acadl,"gene Acadl, DESeq mean, 4 reps",174.046
same,log2FoldChange Acadl,"gene Acadl, vs vehicle, 4 reps",2.185
same,MeanFenamidone Acadvl,"gene Acadvl, DESeq mean, 4 reps",272.079
same,log2FoldChange Acadvl,"gene Acadvl, vs vehicle, 4 reps",1.576
same,MeanFenamidone Acsbg1,"gene Acsbg1, DESeq mean, 4 reps",241.134
same,log2FoldChange Acsbg1,"gene Acsbg1, vs vehicle, 4 reps",1.737
same,MeanFenamidone Acta2,"gene Acta2, DESeq mean, 4 reps",2838.59
same,log2FoldChange Acta2,"gene Acta2, vs vehicle, 4 reps",3.4285
same,MeanFenamidone Actn1,"gene Actn1, DESeq mean, 4 reps",711.955
same,log2FoldChange Actn1,"gene Actn1, vs vehicle, 4 reps",2.284
same,MeanFenamidone Adamts5,"gene Adamts5, DESeq mean, 4 reps",85.7871
same,log2FoldChange Adamts5,"gene Adamts5, vs vehicle, 4 reps",2.142
same,MeanFenamidone Adarb2,"gene Adarb2, DESeq mean, 4 reps",8.295
same,log2FoldChange Adarb2,"gene Adarb2, vs vehicle, 4 reps",-3.192
same,MeanFenamidone Agap2,"gene Agap2, DESeq mean, 4 reps",683.65
same,log2FoldChange Agap2,"gene Agap2, vs vehicle, 4 reps",-1.416
same,MeanFenamidone Ahnak,"gene Ahnak, DESeq mean, 4 reps",1224
same,log2FoldChange Ahnak,"gene Ahnak, vs vehicle, 4 reps",2.684
same,MeanFenamidone Ajuba,"gene Ajuba, DESeq mean, 4 reps",246.575
same,log2FoldChange Ajuba,"gene Ajuba, vs vehicle, 4 reps",2.23
same,MeanFenamidone,gene Akap2,757.95
same,log2FoldChange,gene Akap2,1.126
same,MeanFenamidone Aldh4a1,"gene Aldh4a1, DESeq mean, 4 reps",305.431
same,log2FoldChange Aldh4a1,"gene Aldh4a1, vs vehicle, 4 reps",1.584
same,MeanFenamidone Amotl1,"gene Amotl1, DESeq mean, 4 reps",463.485
same,log2FoldChange Amotl1,"gene Amotl1, vs vehicle, 4 reps",1.802
same,MeanFenamidone Amotl2,"gene Amotl2, DESeq mean, 4 reps",666.038
same,log2FoldChange Amotl2,"gene Amotl2, vs vehicle, 4 reps",1.759
same,MeanFenamidone,gene Anxa2,244.58
same,log2FoldChange,gene Anxa2,2.151
same,MeanFenamidone Anxa3,"gene Anxa3, DESeq mean, 4 reps",244.534
same,log2FoldChange Anxa3,"gene Anxa3, vs vehicle, 4 reps",3.475
same,MeanFenamidone Arhgap18,"gene Arhgap18, DESeq mean, 4 reps",128.165
same,log2FoldChange Arhgap18,"gene Arhgap18, vs vehicle, 4 reps",1.989
same,MeanFenamidone,gene Arhgdig,118.591
same,log2FoldChange,gene Arhgdig,-1.355
same,MeanFenamidone,gene Arhgef40,160.321
same,log2FoldChange,gene Arhgef40,1.457
same,MeanFenamidone Asah1,"gene Asah1, DESeq mean, 4 reps",348.017
same,log2FoldChange Asah1,"gene Asah1, vs vehicle, 4 reps",1.772
same,MeanFenamidone Ass1,"gene Ass1, DESeq mean, 4 reps",83.2354
same,log2FoldChange Ass1,"gene Ass1, vs vehicle, 4 reps",3.013
same,MeanFenamidone Atf3,"gene Atf3, DESeq mean, 4 reps",64.246
same,log2FoldChange Atf3,"gene Atf3, vs vehicle, 4 reps",2.3746
same,MeanFenamidone Atf5,"gene Atf5, DESeq mean, 4 reps",765.032
same,log2FoldChange Atf5,"gene Atf5, vs vehicle, 4 reps",1.876
same,MeanFenamidone Atl1,"gene Atl1, DESeq mean, 4 reps",97.9838
same,log2FoldChange Atl1,"gene Atl1, vs vehicle, 4 reps",-1.537
same,MeanFenamidone Axl,"gene Axl, DESeq mean, 4 reps",322.064
same,log2FoldChange Axl,"gene Axl, vs vehicle, 4 reps",2.208
same,MeanFenamidone,gene Bak1,236.594
same,log2FoldChange,gene Bak1,1.306
same,MeanFenamidone Bcl11b,"gene Bcl11b, DESeq mean, 4 reps",202.325
same,log2FoldChange Bcl11b,"gene Bcl11b, vs vehicle, 4 reps",-1.501
same,MeanFenamidone Bhlhe41,"gene Bhlhe41, DESeq mean, 4 reps",115.206
same,log2FoldChange Bhlhe41,"gene Bhlhe41, vs vehicle, 4 reps",2.168
same,MeanFenamidone,gene Bmp1,153.886
same,log2FoldChange,gene Bmp1,1.3853
same,MeanFenamidone Bnip3,"gene Bnip3, DESeq mean, 4 reps",102.453
same,log2FoldChange Bnip3,"gene Bnip3, vs vehicle, 4 reps",-1.924
same,MeanFenamidone,gene Bnip3l,236.54
same,log2FoldChange,gene Bnip3l,-1.119
same,MeanFenamidone,gene Bsn,443.744
same,log2FoldChange,gene Bsn,-1.148
same,MeanFenamidone,gene Cad,202.997
same,log2FoldChange,gene Cad,1.187
same,MeanFenamidone,gene Cadps,260.197
same,log2FoldChange,gene Cadps,-1.6246
same,MeanFenamidone Cald1,"gene Cald1, DESeq mean, 4 reps",1843.23
same,log2FoldChange Cald1,"gene Cald1, vs vehicle, 4 reps",1.947
same,MeanFenamidone,gene Calm2,809.868
same,log2FoldChange,gene Calm2,-1.097
same,MeanFenamidone Camk2a,"gene Camk2a, DESeq mean, 4 reps",319.844
same,log2FoldChange Camk2a,"gene Camk2a, vs vehicle, 4 reps",-1.451
same,MeanFenamidone,gene Camk2n1,296.66
same,log2FoldChange,gene Camk2n1,-1.023
same,MeanFenamidone Camk4,"gene Camk4, DESeq mean, 4 reps",490.278
same,log2FoldChange Camk4,"gene Camk4, vs vehicle, 4 reps",-1.593
same,MeanFenamidone Camta1,"gene Camta1, DESeq mean, 4 reps",338.624
same,log2FoldChange Camta1,"gene Camta1, vs vehicle, 4 reps",-1.578
same,MeanFenamidone Caskin2,"gene Caskin2, DESeq mean, 4 reps",130.097
same,log2FoldChange Caskin2,"gene Caskin2, vs vehicle, 4 reps",2.297
same,MeanFenamidone Ccdc141,"gene Ccdc141, DESeq mean, 4 reps",72.7622
same,log2FoldChange Ccdc141,"gene Ccdc141, vs vehicle, 4 reps",2.666
same,MeanFenamidone Ccnd3,"gene Ccnd3, DESeq mean, 4 reps",321.074
same,log2FoldChange Ccnd3,"gene Ccnd3, vs vehicle, 4 reps",1.783
same,MeanFenamidone Ccng1,"gene Ccng1, DESeq mean, 4 reps",4010.45
same,log2FoldChange Ccng1,"gene Ccng1, vs vehicle, 4 reps",1.5262
same,MeanFenamidone Cd63,"gene Cd63, DESeq mean, 4 reps",136.407
same,log2FoldChange Cd63,"gene Cd63, vs vehicle, 4 reps",2.342
same,MeanFenamidone Cd68,"gene Cd68, DESeq mean, 4 reps",127.152
same,log2FoldChange Cd68,"gene Cd68, vs vehicle, 4 reps",2.839
same,MeanFenamidone Cd151,"gene Cd151, DESeq mean, 4 reps",686.042
same,log2FoldChange Cd151,"gene Cd151, vs vehicle, 4 reps",1.998
same,MeanFenamidone Cdc42ep1,"gene Cdc42ep1, DESeq mean, 4 reps",242.014
same,log2FoldChange Cdc42ep1,"gene Cdc42ep1, vs vehicle, 4 reps",2.019
same,MeanFenamidone Cdkl2,"gene Cdkl2, DESeq mean, 4 reps",148.718
same,log2FoldChange Cdkl2,"gene Cdkl2, vs vehicle, 4 reps",-1.498
same,MeanFenamidone Cdkn1a,"gene Cdkn1a, DESeq mean, 4 reps",1626.53
same,log2FoldChange Cdkn1a,"gene Cdkn1a, vs vehicle, 4 reps",1.6849
same,MeanFenamidone,gene Cercam,80.354
same,log2FoldChange,gene Cercam,1.731
same,MeanFenamidone,gene Chga,168.446
same,log2FoldChange,gene Chga,-1.21
same,MeanFenamidone,gene Chl1,1683.83
same,log2FoldChange,gene Chl1,-1.224
same,MeanFenamidone,gene Ckb,1311.75
same,log2FoldChange,gene Ckb,1.6
same,MeanFenamidone,gene Clec7a,31.0423
same,log2FoldChange,gene Clec7a,2.927
same,MeanFenamidone Cln5,"gene Cln5, DESeq mean, 4 reps",194.081
same,log2FoldChange Cln5,"gene Cln5, vs vehicle, 4 reps",2.017
same,MeanFenamidone Cnr1,"gene Cnr1, DESeq mean, 4 reps",426.988
same,log2FoldChange Cnr1,"gene Cnr1, vs vehicle, 4 reps",-1.344
same,MeanFenamidone Col4a5,"gene Col4a5, DESeq mean, 4 reps",502.413
same,log2FoldChange Col4a5,"gene Col4a5, vs vehicle, 4 reps",2.312
same,MeanFenamidone,gene Col4a6,110.458
same,log2FoldChange,gene Col4a6,2.156
same,MeanFenamidone Col12a1,"gene Col12a1, DESeq mean, 4 reps",444.559
same,log2FoldChange Col12a1,"gene Col12a1, vs vehicle, 4 reps",2.385
same,MeanFenamidone Cpeb1,"gene Cpeb1, DESeq mean, 4 reps",116.043
same,log2FoldChange Cpeb1,"gene Cpeb1, vs vehicle, 4 reps",2.171
same,MeanFenamidone Csf1,"gene Csf1, DESeq mean, 4 reps",1349.7
same,log2FoldChange Csf1,"gene Csf1, vs vehicle, 4 reps",2.395
same,MeanFenamidone Csrnp3,"gene Csrnp3, DESeq mean, 4 reps",419.96
same,log2FoldChange Csrnp3,"gene Csrnp3, vs vehicle, 4 reps",-1.31
same,MeanFenamidone Ctnna1,"gene Ctnna1, DESeq mean, 4 reps",850.825
same,log2FoldChange Ctnna1,"gene Ctnna1, vs vehicle, 4 reps",1.929
same,MeanFenamidone Ctsd,"gene Ctsd, DESeq mean, 4 reps",3727.98
same,log2FoldChange Ctsd,"gene Ctsd, vs vehicle, 4 reps",1.609
same,MeanFenamidone Ctsl,"gene Ctsl, DESeq mean, 4 reps",1179.87
same,log2FoldChange Ctsl,"gene Ctsl, vs vehicle, 4 reps",1.543
same,MeanFenamidone Cyba,"gene Cyba, DESeq mean, 4 reps",37.6864
same,log2FoldChange Cyba,"gene Cyba, vs vehicle, 4 reps",3.26
same,MeanFenamidone Cyr61,"gene Cyr61, DESeq mean, 4 reps",1421.12
same,log2FoldChange Cyr61,"gene Cyr61, vs vehicle, 4 reps",2.66
same,MeanFenamidone D130043K22Rik,"gene D130043K22Rik, DESeq mean, 4 reps",33.8314
same,log2FoldChange D130043K22Rik,"gene D130043K22Rik, vs vehicle, 4 reps",-1.82
same,MeanFenamidone Daam2,"gene Daam2, DESeq mean, 4 reps",263.262
same,log2FoldChange Daam2,"gene Daam2, vs vehicle, 4 reps",1.9757
same,MeanFenamidone,gene Darc,104.469
same,log2FoldChange,gene Darc,-1.472
